Active and inactive are the calls of the source. The rule behind the calls is not given here.
Experiments:
[1] = system: HepG2; experiment: Cytotoxicity against human HepG2 cells assessed as cell death after 24 hrs by lactate dehydrogenase release assay; format: functional, cell-based
[2] = system: Hep 3B2; experiment: Cytotoxicity against human Hep3B cells assessed as cell death after 24 hrs by lactate dehydrogenase release assay; format: functional, cell-based
[3] = system: MCF7; experiment: Cytotoxicity against human MCF7 cells assessed as levels of nitric oxide production at 100 uM after 30 to 300 mins by colorimetric assay; format: functional, cell-based
[4] = system: MCF7; experiment: Cytotoxicity against human MCF7 cells assessed as cell death by lactate dehydrogenase release assay; format: functional, cell-based
[5] = system: HepG2; experiment: Cytotoxicity against human HepG2 cells assessed as cell death at 0.1 uM after 24 hrs by lactate dehydrogenase release assay; format: functional
[6] = system: HEK293; experiment: Cytotoxicity against human HEK293 cells assessed as levels of nitric oxide production at 100 uM after 30 to 300 mins by colorimetric assay; format: functional, cell-based
[7] = system: HEK293; experiment: Cytotoxicity against HEK293 cells assessed as cell death by lactate dehydrogenase release assay; format: functional, cell-based; settings: Homo sapiens
[8] = system: HepG2; experiment: Cytotoxicity against human HepG2 cells assessed as cell death at 1 uM after 24 hrs by lactate dehydrogenase release assay; format: functional
[9] = system: Hep 3B2; experiment: Cytotoxicity against human Hep3B cells assessed as levels of nitric oxide production at 100 uM after 30 to 300 mins by colorimetric assay; format: functional, cell-based
[10] = Cytotoxicity against human Hep3B cells assessed as cell death at 1 uM after 24 hrs by lactate dehydrogenase release assay; format: functional, Hep 3B2
[11] = system: PC-3; experiment: Cytotoxicity against human PC3 cells assessed as levels of nitric oxide production at 100 uM after 30 to 300 mins by colorimetric assay; format: functional, cell-based
[12] = Cytotoxicity against human Hep3B cells assessed as cell death at 0.001 uM after 24 hrs by lactate dehydrogenase release assay; format: functional, Hep 3B2
[13] = system: HepG2; experiment: Cytotoxicity against human HepG2 cells assessed as levels of nitric oxide production at 100 uM after 30 to 300 mins by colorimetric assay; format: functional, cell-based
[14] = system: PC-3; experiment: Cytotoxicity against human PC3 cells assessed as cell death by lactate dehydrogenase release assay; format: functional, cell-based
[15] = system: HepG2; experiment: Cytotoxicity against human HepG2 cells assessed as cell death at 0.001 uM after 24 hrs by lactate dehydrogenase release assay; format: functional
[16] = system: HepG2; experiment: Cytotoxicity against human HepG2 cells assessed as cell death at 0.01 uM after 24 hrs by lactate dehydrogenase release assay; format: functional
[17] = Cytotoxicity against human Hep3B cells assessed as cell death at 0.1 uM after 24 hrs by lactate dehydrogenase release assay; format: functional, Hep 3B2
[18] = Cytotoxicity against human Hep3B cells assessed as cell death at 0.01 uM after 24 hrs by lactate dehydrogenase release assay; format: functional, Hep 3B2
[19] = system: HeLa; experiment: Cytotoxicity against human HeLa cells assessed as levels of nitric oxide production at 100 uM after 30 to 300 mins by colorimetric assay; format: functional, cell-based
[20] = system: HeLa; experiment: Cytotoxicity against human HeLa cells assessed as cell death by lactate dehydrogenase release assay; format: functional, cell-based

SMILES	Activity [1]	Activity [2]	other results
CC1(C)CC[C@]2(C(=O)OCc3cccc(OCc4c(-c5ccccc5)no[n+]4[O-])c3)CC[C@]3(C)C(=CC[C@@H]4[C@@]5(C)CC[C@H](OC(=O)C(F)(F)F)C(C)(C)[C@@H]5CC[C@]43C)[C@@H]2C1	inactive	inactive	–
CC1(C)CC[C@]2(C(=O)O)CC[C@]3(C)C(=CC[C@@H]4[C@@]5(C)CC[C@H](OC(=O)CCC(=O)Oc6cccc(OCc7c(-c8ccccc8)no[n+]7[O-])c6)C(C)(C)[C@@H]5CC[C@]43C)[C@@H]2C1	inactive	inactive	–
CCOC(=O)[C@]12CCC(C)(C)C[C@H]1C1=CC[C@@H]3[C@@]4(C)CC[C@H](OC(=O)CCC(=O)OCCOCCOc5no[n+]([O-])c5S(=O)(=O)c5ccccc5)C(C)(C)[C@@H]4CC[C@@]3(C)[C@]1(C)CC2	inactive	inactive	–
CC1(C)CC[C@]2(C(=O)O)CC[C@]3(C)C(=CC[C@@H]4[C@@]5(C)CC[C@H](OC(=O)CCC(=O)OCc6c(-c7ccccc7)no[n+]6[O-])C(C)(C)[C@@H]5CC[C@]43C)[C@@H]2C1	–	–	Activity [3]: inactive; Activity [4]: inactive; Activity [5]: 0%; Activity [6]: inactive; Activity [7]: inactive; Activity [8]: 0%; Activity [9]: Active; Activity [10]: 0%; Activity [11]: inactive; Activity [12]: 0%; Activity [13]: Active; Activity [14]: inactive; Activity [15]: 0%; Activity [16]: 0%; Activity [17]: 0%; Activity [18]: 0%; Activity [19]: inactive; Activity [20]: inactive
CC1(C)CC[C@]2(C(=O)OCc3c(-c4ccccc4)no[n+]3[O-])CC[C@]3(C)C(=CC[C@@H]4[C@@]5(C)CC[C@H](O)C(C)(C)[C@@H]5CC[C@]43C)[C@@H]2C1	inactive	inactive	–
CC1(C)CC[C@]2(C(=O)OCc3c(-c4ccccc4)no[n+]3[O-])CC[C@]3(C)C(=CC[C@@H]4[C@@]5(C)CC[C@H](OC(=O)C(F)(F)F)C(C)(C)[C@@H]5CC[C@]43C)[C@@H]2C1	inactive	inactive	–
CC(CCOc1no[n+]([O-])c1S(=O)(=O)c1ccccc1)OC(=O)[C@]12CCC(C)(C)C[C@H]1C1=CC[C@@H]3[C@@]4(C)CC[C@H](OC(=O)C(F)(F)F)C(C)(C)[C@@H]4CC[C@@]3(C)[C@]1(C)CC2 (some centres not stated)	–	–	Activity [3]: inactive; Activity [4]: inactive; Activity [5]: 0%; Activity [6]: inactive; Activity [7]: inactive; Activity [8]: 0%; Activity [9]: Active; Activity [10]: 0%; Activity [11]: inactive; Activity [12]: 0%; Activity [13]: Active; Activity [14]: inactive; Activity [15]: 0%; Activity [16]: 0%; Activity [17]: 0%; Activity [18]: 0%; Activity [19]: inactive; Activity [20]: inactive
CC1(C)CC[C@]2(C(=O)OCCOCCOc3no[n+]([O-])c3S(=O)(=O)c3ccccc3)CC[C@]3(C)C(=CC[C@@H]4[C@@]5(C)CC[C@H](OC(=O)C(F)(F)F)C(C)(C)[C@@H]5CC[C@]43C)[C@@H]2C1	inactive	inactive	–
CCOC(=O)[C@]12CCC(C)(C)C[C@H]1C1=CC[C@@H]3[C@@]4(C)CC[C@H](OC(=O)CCC(=O)OCc5cccc(OCc6c(-c7ccccc7)no[n+]6[O-])c5)C(C)(C)[C@@H]4CC[C@@]3(C)[C@]1(C)CC2	inactive	inactive	–
CC1(C)CC[C@]2(C(=O)OCc3ccccc3)CC[C@]3(C)C(=CC[C@@H]4[C@@]5(C)CC[C@H](OC(=O)CCC(=O)OCc6ccc(Oc7no[n+]([O-])c7S(=O)(=O)c7ccccc7)cc6)C(C)(C)[C@@H]5CC[C@]43C)[C@@H]2C1	inactive	inactive	–
CCOC(=O)[C@]12CCC(C)(C)C[C@H]1C1=CC[C@@H]3[C@@]4(C)CC[C@H](OC(=O)CCC(=O)OC(C)CCOc5no[n+]([O-])c5S(=O)(=O)c5ccccc5)C(C)(C)[C@@H]4CC[C@@]3(C)[C@]1(C)CC2 (some centres not stated)	inactive	inactive	–
CC1(C)CC[C@]2(C(=O)OCC#CCOc3no[n+]([O-])c3S(=O)(=O)c3ccccc3)CC[C@]3(C)C(=CC[C@@H]4[C@@]5(C)CC[C@H](OC(=O)C(F)(F)F)C(C)(C)[C@@H]5CC[C@]43C)[C@@H]2C1	inactive	inactive	–
CC1(C)CC[C@]2(C(=O)OCc3ccc(OCc4c(-c5ccccc5)no[n+]4[O-])cc3)CC[C@]3(C)C(=CC[C@@H]4[C@@]5(C)CC[C@H](OC(=O)C(F)(F)F)C(C)(C)[C@@H]5CC[C@]43C)[C@@H]2C1	inactive	inactive	–
CC1(C)CC[C@]2(C(=O)O)CC[C@]3(C)C(=CC[C@@H]4[C@@]5(C)CC[C@H](OC(=O)CCC(=O)OCc6ccc(OCc7c(-c8ccccc8)no[n+]7[O-])cc6)C(C)(C)[C@@H]5CC[C@]43C)[C@@H]2C1	inactive	inactive	–
CCOC(=O)[C@]12CCC(C)(C)C[C@H]1C1=CC[C@@H]3[C@@]4(C)CC[C@H](OC(=O)CCC(=O)OCc5ccc(OCc6c(-c7ccccc7)no[n+]6[O-])cc5)C(C)(C)[C@@H]4CC[C@@]3(C)[C@]1(C)CC2	inactive	inactive	–
CC(CCOc1no[n+]([O-])c1S(=O)(=O)c1ccccc1)OC(=O)CCC(=O)O[C@H]1CC[C@]2(C)[C@H]3CC=C4[C@@H]5CC(C)(C)CC[C@]5(C(=O)OCc5ccccc5)CC[C@@]4(C)[C@]3(C)CC[C@H]2C1(C)C (some centres not stated)	inactive	inactive	–
CC1(C)CC[C@]2(C(=O)OCc3ccccc3)CC[C@]3(C)C(=CC[C@@H]4[C@@]5(C)CC[C@H](OC(=O)CCC(=O)OCc6c(-c7ccccc7)no[n+]6[O-])C(C)(C)[C@@H]5CC[C@]43C)[C@@H]2C1	inactive	inactive	–
CC1(C)CC[C@]2(C(=O)OCc3cccc(OCc4c(-c5ccccc5)no[n+]4[O-])c3)CC[C@]3(C)C(=CC[C@@H]4[C@@]5(C)CC[C@H](O)C(C)(C)[C@@H]5CC[C@]43C)[C@@H]2C1	inactive	inactive	–
CC1(C)CC[C@]2(C(=O)OCCCCOc3no[n+]([O-])c3S(=O)(=O)c3ccccc3)CC[C@]3(C)C(=CC[C@@H]4[C@@]5(C)CC[C@H](O)C(C)(C)[C@@H]5CC[C@]43C)[C@@H]2C1	inactive	inactive	–
CC1(C)CC[C@]2(C(=O)OCc3ccccc3)CC[C@]3(C)C(=CC[C@@H]4[C@@]5(C)CC[C@H](OC(=O)CCC(=O)OCCCCOc6no[n+]([O-])c6S(=O)(=O)c6ccccc6)C(C)(C)[C@@H]5CC[C@]43C)[C@@H]2C1	inactive	inactive	–
CC1(C)CC[C@]2(C(=O)OCCCCOc3no[n+]([O-])c3S(=O)(=O)c3ccccc3)CC[C@]3(C)C(=CC[C@@H]4[C@@]5(C)CC[C@H](OC(=O)C(F)(F)F)C(C)(C)[C@@H]5CC[C@]43C)[C@@H]2C1	inactive	inactive	–
CC1(C)CC[C@]2(C(=O)OCc3ccc(Oc4no[n+]([O-])c4S(=O)(=O)c4ccccc4)cc3)CC[C@]3(C)C(=CC[C@@H]4[C@@]5(C)CC[C@H](OC(=O)C(F)(F)F)C(C)(C)[C@@H]5CC[C@]43C)[C@@H]2C1	inactive	inactive	–
CC1(C)CC[C@]2(C(=O)O)CC[C@]3(C)C(=CC[C@@H]4[C@@]5(C)CC[C@H](OC(=O)CCC(=O)OCc6cccc(OCc7c(-c8ccccc8)no[n+]7[O-])c6)C(C)(C)[C@@H]5CC[C@]43C)[C@@H]2C1	inactive	inactive	–
CC1(C)CC[C@]2(C(=O)OCc3ccccc3)CC[C@]3(C)C(=CC[C@@H]4[C@@]5(C)CC[C@H](OC(=O)CCC(=O)OCc6cccc(Oc7no[n+]([O-])c7S(=O)(=O)c7ccccc7)c6)C(C)(C)[C@@H]5CC[C@]43C)[C@@H]2C1	inactive	inactive	–
CC1(C)CC[C@]2(C(=O)O)CC[C@]3(C)C(=CC[C@@H]4[C@@]5(C)CC[C@H](OC(=O)CCC(=O)OCc6ccc(Oc7no[n+]([O-])c7S(=O)(=O)c7ccccc7)cc6)C(C)(C)[C@@H]5CC[C@]43C)[C@@H]2C1	inactive	inactive	–

Reference: ChEMBL document CHEMBL1155809, “Design, synthesis, and antihepatocellular carcinoma activity of nitric oxide releasing derivatives of oleanolic acid” (J Med Chem, 2008)
